This is an account of results in patent EP2647628A1, “Substituted tricyclic compounds with activity towards ep1 receptors” (Almirall, S.A., priority 2012, dated 2013).

Molecules are shown by their SMILES. Where only a bound is given, the exact number is not on record here.

This experiment deals with T1, human EP1 receptor (Homo sapiens, UniProt P34995).
T1 construct: expressed in transfected cells; host or cells: HEK-293 cell membranes
T1 sequence (P34995 1-402): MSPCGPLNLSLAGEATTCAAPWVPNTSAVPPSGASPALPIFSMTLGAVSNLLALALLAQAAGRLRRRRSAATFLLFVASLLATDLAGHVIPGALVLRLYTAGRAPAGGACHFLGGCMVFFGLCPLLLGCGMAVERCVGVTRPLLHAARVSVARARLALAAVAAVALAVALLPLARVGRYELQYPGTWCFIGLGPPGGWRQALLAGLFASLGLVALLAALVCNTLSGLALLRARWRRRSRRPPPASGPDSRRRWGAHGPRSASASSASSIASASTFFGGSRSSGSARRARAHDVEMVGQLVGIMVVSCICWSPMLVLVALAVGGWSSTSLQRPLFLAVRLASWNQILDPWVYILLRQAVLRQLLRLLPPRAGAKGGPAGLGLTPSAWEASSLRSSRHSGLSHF
Briefly: Human EP1 receptor radioligand binding assay. Particulars: [3H]-PGE2 (10 nM), transfected HEK-293 cell membranes, pH 6.0, 25 °C, 60 minutes; Ki by Cheng-Prusoff equation. As to the method: To investigate binding properties of EP1 receptor ligands to human EP1 receptor, transfected HEK-293 cell membranes and [3H]-PGE2 (Perkin Elmer) were used. In 96-well plates the assay was carried out with a total reaction volume of 250 µl, containing 25 µl of membrane suspension (30 µg protein/well), 25 µl of [3H]-PGE2 (10 nM) in either absence or presence of 25 µl of either buffer or PGE2 (10 µM) for total and non-specific binding, respectively. Binding buffer contained 10 mM MES, 1 mM MgCl2 and 1 mM EDTA at pH 6.0. Plates were incubated at 25 °C for 60 minutes. After the incubation period, 200 µl of incubate were transferred to MultiScreen HTS, FB plates (Millipore), filtered and plates were washed 6 times with ice-cold 10 mM MES, 1 mM MgCl2 and 1 mM EDTA at pH 6.0. Filters were dried and counted in a MicroBeta scintillation counter (Perkin-Elmer) using EcoScint liquid scintillation cocktail.
Percentage inhibition was calculated relating compounds activity to the 0% inhibition of the wells incubated with 10 nM [3H]-PGE2 alone (total binding) and 100% inhibition of the wells incubated with 10 nM [3H]-PGE2 plus 10 µM PGE2 (non-specific binding). Competition binding curves were carried out by assaying 6 different concentrations with duplicated points. The inhibition constant (Ki) of each compound was calculated by the Cheng-Prusoff equation: Ki = IC50 /(1+[L]/KD) [formula] where IC50 is the concentration of compound that displaces the binding of radioligand by 50%, [L] is the free concentration of radioligand and KD is the dissociation constant of each radioligand. IC50 values were obtained by fitting the data with non-linear regression using XIFit software (IDBS).
The term Ki denotes a dissociation constant, usually derived from enzyme kinetics or from competition with a known ligand. A lower Ki goes with tighter binding. Consider `O=C(O)c1ccc([C@@H]2Nc3ccc(Cl)cc3[C@@H]3CCC[C@@H]32)cc1` (single isomer, unassigned) [EXAMPLE 06a], for which the Ki was under 100 nM.

`COc1ccc2c(c1)[C@@H]1CCC[C@@H]1[C@H](c1ccc(C(=O)O)cc1)N2` (racemic) [EXAMPLE 07, 4-((3aS,4R,9bR)-2,3,3a,4,5,9b-hexahydro-8-methoxy-1H-cyclopenta[c]quinolin-4-yl)benzoic acid] registered a Ki of under 100 nM.

On to `Cc1ccc2c(c1)[C@@H]1CCC[C@@H]1[C@H](c1cc(C(=O)O)nn1C)N2` [EXAMPLE 62, 5-((3aS,4R,9bR)-2,3,3a,4,5,9b-hexahydro-8-methyl-1H-cyclopenta[c]quinolin-4-yl)-1-methyl-1H-pyrazole-3-carboxylic acid], for which the Ki was over 500 nM.

As to `Cc1ccc2c(c1)[C@@H]1CCC[C@@H]1[C@H](c1ccc(C(=O)O)cc1)N2C` [EXAMPLE 30, 4-((3aS,4R,9bR)-2,3,3a,4,5,9b-hexahydro-5,8-dimethyl-1H-cyclopenta[c]quinolin-4-yl)benzoic acid], the Ki was over 500 nM.

Regarding `CCc1cc(C(=O)O)ccc1[C@H]1Nc2ccc(OC)cc2[C@@H]2CCC[C@H]12` [EXAMPLE 55, 3-ethyl-4-((3aS,4S,9bR)-2,3,3a,4,5,9b-hexahydro-8-methoxy-1H-cyclopenta[c]quinolin-4-yl)benzoic acid], the inhibition constant Ki was 100 to 500 nM.

In turn, `O=C(O)c1ccc([C@@H]2Nc3ccc(Br)cc3[C@@H]3CCC[C@@H]32)cc1` [EXAMPLE 02, 4-((3aS,4R,9bR)-8-bromo-2,3,3a,4,5,9b-hexahydro-1H cyclopenta[c]quinolin-4-yl)benzoic acid] registered an inhibition constant (Ki) of 100 to 500 nM.

As for `COc1ccc2c(c1)[C@]1(C)CCC[C@@H]1[C@H](c1ccc(C(=O)O)cc1)N2` [EXAMPLE 69, 4-((3aS,4R,9bR)-2,3,3a,4,5,9b-hexahydro-8-methoxy-9b-methyl-1H-cyclopenta[c]quinolin-4-yl)benzoic acid], the inhibition constant Ki lay within 100 to 500 nM.

Consider `COc1ccc2c(c1)[C@@H]1CCC[C@@H]1[C@@H](c1c(C)cc(C(=O)O)cc1C)N2` [EXAMPLE 57, 4-((3aS,4S,9bR)-2,3,3a,4,5,9b-hexahydro-8-methoxy-1H-cyclopenta[c]quinolin-4-yl)-3,5-dimethylbenzoic acid], for which the Ki was under 100 nM.

`Cc1cc2c(cc1Cl)N[C@@H](c1ccc(C(=O)O)cc1)[C@H]1CCC[C@@H]21` [EXAMPLE 29, 4-((3aS,4R,9bR)-7-chloro-2,3,3a,4,5,9b-hexahydro-8-methyl-1H-cyclopenta[c]quinolin-4-yl)benzoic acid] had a Ki of over 500 nM.

Molecule `Cc1ccc2c(c1)[C@@H]1CCC[C@@H]1[C@H](c1ccc(C(=O)O)cc1)N2` (racemic) [EXAMPLE 04, 4-((3aS,4R,9bR)-2,3,3a,4,5,9b-hexahydro-8-methyl-1H-cyclopenta[c]quinolin-4-yl)benzoic acid] had a Ki of 100 to 500 nM.

In turn, `N#Cc1ccc2c(c1)[C@@H]1CCC[C@@H]1[C@H](c1ccc(C(=O)O)cc1)N2` [EXAMPLE 19, 4-((3aS,4R,9bR)-8-cyano-2,3,3a,4,5,9b-hexahydro-1H-cyclopenta[c]quinolin-4-yl)benzoic acid] gave a Ki of over 500 nM.

For `CCCc1ccc2c(c1)[C@@H]1CCC[C@@H]1[C@H](c1ccc(C(=O)O)cc1)N2` [EXAMPLE 12, 4-((3aS, 4R, 9bR)-2,3,3a, 4,5,9b-hexahydro-8-propyl-1H-cyclopenta[c]quinolin-4-yl)benzoic acid], the Ki was over 500 nM.

Turning to `CC(C)c1ccc2c(c1)[C@@H]1CCC[C@@H]1[C@H](c1ccc(C(=O)O)cc1)N2` [EXAMPLE 18, 4-((3aS,4R,9bR)-2,3,3a,4,5,9b-hexahydro-8-isopropyl-1H-cyclopenta[c]quinolin-4-yl)benzoic acid], the Ki is 100 to 500 nM.

In turn, `Cc1ccc2c(c1)[C@@H]1CCC[C@@H]1[C@H](c1ccc(C(=O)O)cc1Cl)N2` [EXAMPLE 47, 3-chloro-4-((3aS, 4R, 9bR)-2,3,3a, 4,5,9b-hexahydro-8-methyl-1H-cyclopenta[c]quinolin-4-yl)benzoic acid] had a Ki of 100 to 500 nM.

`Cc1ccc2c(c1)[C@@H]1CCC[C@@H]1[C@H](c1ccc(C(=O)O)c(C)c1)N2` [EXAMPLE 36, 4-((3aS, 4R, 9bR)-2,3,3a, 4,5,9b-hexahydro-8-methyl-1H-cyclopenta[c]quinolin-4-yl)-2-methylbenzoic acid]: the Ki was over 500 nM.

Turning to `Cc1ccc2c(c1)[C@]1(C)CCC[C@@H]1[C@H](c1ccc(C(=O)O)cc1C)N2` [EXAMPLE 75, 4-((3aS, 4R, 9bR)-2,3,3a, 4,5,9b-hexahydro-8,9b-dimethyl-1H-cyclopenta[c]quinolin-4-yl)-3-methylbenzoic acid], the Ki fell in the range of 100 to 500 nM.

On to `Cc1cc(C(=O)O)ccc1[C@@H]1Nc2ccc(C3CC3)cc2[C@@H]2CCC[C@@H]21` [EXAMPLE 43, 4-((3aS, 4R, 9bR)-8-cyclopropyl-2,3,3a, 4,5,9b-hexahydro-1H cyclopenta[c]quinolin-4-yl)-3-methylbenzoic acid], for which the inhibitory constant (Ki) lay in the range of 100 to 500 nM.

`Cc1ccc2c(c1)[C@@H]1CCC[C@@H]1[C@H](c1ccc(C(=O)O)cc1C)N2` (single isomer, unassigned) [EXAMPLE 37a] registered a Ki of under 100 nM.

For the molecule `Cc1ccc2c(c1)[C@@H]1CCC[C@@H]1[C@@H](c1c(C)cc(C(=O)O)cc1C)N2` [EXAMPLE 56, 4-((3aS,4S,9bR)-2,3,3a,4,5,9b-hexahydro-8-methyl-1H cyclopenta[c]quinolin-4-yl)-3,5-dimethylbenzoic acid], the Ki is under 100 nM.
